Tests used:
CAKI-1 = test: Cytotoxicity against human CAKI-1 cells assessed as reduction in cell viability after 48 hrs by MTT assay; conditions: CAKI-1, 48 h
A498 = test: Cytotoxicity against human A498 cells assessed as reduction in cell viability after 48 hrs by MTT assay; conditions: A498, 48 h
[1] = Cytotoxicity against human RPTEC/TERT1 cells assessed as reduction in cell viability after 48 hrs by MTT assay

Row | SMILES | IC50 (CAKI-1) | IC50 (A498) | IC50 [1]
1 | O=C1CS/C(=N\N=C2/C(=O)N(Cc3ccccc3)c3ccc(Cl)cc32)N1 | 35.6 µM | 3.45 µM | 
2 | CC(=O)c1s/c(=N\N=C2/C(=O)N(Cc3ccccc3)c3ccc(Cl)cc32)[nH]c1C | 12.8 µM | 6.27 µM | 
3 | O=C1/C(=N\N=c2\[nH]c(-c3ccc([N+](=O)[O-])cc3)cs2)c2cc(Cl)ccc2N1Cc1ccccc1 | 5.78 µM | 24.7 µM | 
4 | NC1=NNC(=O)/C1=C1/C(=O)N(Cc2ccccc2)c2ccc(Cl)cc21 | 0.82 µM | 8.53 µM | 
5 | CCOC(=O)/C(=N/Nc1ccc(C)cc1)S/C(N)=N\N=C1/C(=O)N(Cc2ccccc2)c2ccc(Cl)cc21 | 3.9 µM | 2.88 µM | 
6 | CCOC(=O)c1s/c(=N\N=C2/C(=O)N(Cc3ccccc3)c3ccc(Cl)cc32)[nH]c1C | 3.31 µM | 1.23 µM | 49.8 µM
7 | CCN(CC)CCNC(=O)c1c(C)[nH]c(/C=C2\C(=O)Nc3ccc(F)cc32)c1C [SUNITINIB] | 4.93 µM | 1.25 µM | 16.9 µM

From ChEMBL document CHEMBL4706585, “Novel 2-indolinone thiazole hybrids as sunitinib analogues: Design, synthesis, and potent VEGFR-2 inhibition with potential anti-renal cancer activity” (Eur J Med Chem, 2020)
